Measured values as given in patent US20240131155A1, “T CELLS FOR USE IN THERAPY” (Erasmus University Medical Center Rotterdam, priority 2021, published 2024).
Like-named read-outs stand apart in the source and are kept apart here. Peptide text beside a SMILES is read from it.

Legend:
[1] = test system: CD8+ T cells; experiment: Enrichment of epitope-specific CD8 T cells from healthy donors, epitope-specific IFNg production (ELISA); type: cell-based, human; conditions: positive co-cultures / co-cultures tested
Method: Enrichment of epitope-specific CD8 T cells was performed according to the protocol described by Butler et al., Clin Cancer Res.;13(6):1857-1867 (2007), doi:10.1158/1078-0432, but included the following amendments. CD8+ T lymphocytes were collected from PBMCs by magnetic-activated cell sorting (MACS) according to the CD8 isolation kit (Miltenyi Biotec). CD8+ T cells with >95% purity were subsequently cultured in T cell medium supplemented with IL-2 (36 IU/mL; but no gentamycin) for 1 day, after which expansion cycles started. K562ABC cells (kindly provided by prof. Bruce Levine, University of Pennsylvania, PA) were loaded with 10 μg/ml ROPN1 and/or ROPN1B peptide and incubated for 5 h at RT in serum-free medium, after which cells were washed and fixed with 0,1% paraformaldehyde. After washing, K562ABC cells were suspended at 0.1×10^6/mL and co-cultured with T cells in a 1:20 ratio. IL-2 (36 IU/mL) and IL-15 ([…]) were added at days 1 and 3 days after start of co-culture, and after 6 days, T cells were counted, suspended at 2×10^6/mL and rested for 1 day, after which the next cycle commenced (this schedule continued up to 4 or 5 cycles). Following 4 and 5 cycles, T cells were stained with pMHC multimers (HLA*0201/MLN, Immudex, Copenhagen, Denmark). pMHC-PE were pre-incubated at RT for 10 min followed by incubation with 7AAD, anti-CD3-FITC and anti-CD8-APC for 20 min. Cells were fixed with 1% paraformaldehyde and TCR expression was measured with flow cytometry and analyzed using FlowJoX software. FIG. 4A schematically depicts the procedure to enrich epitope-specific T cells, and obtainthe corresponding TCR genes.
Enriched T cells were tested for ROPN1 and/or ROPN1B epitope-specific IFNY production. To this end, T2 cells (4×10^6/mL) were loaded with peptide (20 ng/mL) for 30 min. T cells (2×10^5) were cultured in a 1:1 ratio with T2 cells in a round bottom 96-wells plate, and the next day supernatant was collected and IFN-γ production was measured with an Enzyme-linked immunosorbent assay (ELISA, Invitrogen) according to manufacturer's protocol (FIG. 4B). T2 cells without peptide were included as a negative control; and staphylococcal enterotoxin B (0.1 μg, Sigma) was used as a positive control.
Enrichment of epitope-specific T cells was performed by co-culturing naïve T cells with CD11c-positive cells that were loaded with peptide. PBMCs were passed through a cell strainer (70 μm) and used for the isolation of naïve T cells and CD11c cells. To isolate CD11c-positive cells (typically dendritic cells, DC), PBMCs were stained for 10 mM at 4° C. with Fc block (10 μL/10^7 PBMCs, BD Pharmingen, Vianen, the Netherlands), after which cells were stained with CD11c-PE antibody (10 μL/10^7 PBMCs, BD Pharmingen) for 30 mM at 4° C., washed, and incubated with PE beads (10 μL/10^7 PBMCs, Miltenyi Biotech, Bergisch Gladbach, Germany) for another […] at 4° C. After washing, cells were dissolved in magnetic-activated cell sorting (MACS) buffer and passed through a MACS LS column (Miltenyi Biotec) to positively select CD11c cells. After selection, CD11c cells were irradiated with 30 Gy, and cultured overnight in a 24-wells plate (1×10^6/mL) in RPMI medium supplemented with 1% human serum (Sanquin), 1% antibiotics, […] L-glutamine, a DC maturation cocktail (a mixture of GM-CSF (10 ng/mL, ImmunoTools, Germany), IL-4 (10 ng/mL, ImmunoTools), LPS (100 ng/mL, Invitrogen, Goteborg, Sweden) and IFNY (10 ng/mL, Preprotech, London, United Kingdom)), as well as peptide (10 pg/mL). Naïve T cells were isolated with use of the Naïve T Cell isolation kit (Miltenyi Biotec) according to the manufacturer's protocol, and suspended in RPMI medium supplemented with 5% human serum (Sanquin), 1% antibiotics, […] L-glutamine and IL-7 (5 ng/mL, BD Pharmingen). The run-through of the naïve T cell selection was frozen down and used for re-stimulation of epitope-specific T cells. […]

[2] = biological target: T1, HLA-A2 (Homo sapiens, UniProt P04439, D140Y/D185E/D98H/E176V/E277Q/G131W/G231S/I119V/I121R/I166T/I218V/L300P/L318F/N151K/N90K/P208A/P217A/Q86G/Q94H/R138H/R169H/T345S); experiment: HLA-A2 stabilization assay using T2 cells; type: binding
T1 construct: The HLA-A2 stabilization assay was performed using T2 cells; endogenous in cells; host or cells: T2 cells (LCLxT lymphoblastoid hybrid cell line 0.1743CEM.T2)

[3] = Table 4 (Examples 1 and 2), EC50 of peptide titration on T2 cells, read-out: Affinity for HLA.A2.01
[4] = Table 2 (Example 1), healthy donor T cells
[5] = Table 2 (Example 1), EC50 of peptide titration on T2 cells, read-out: Affinity for HLA A2:01

EC50 [2, 3] [µM]	EC50 [2, 5] [µM]	EC50 ([2]; Example 1, top-ranked epitopes, read-out: EC50 (HLA-A2 binding)) [µM]	SMILES	T cell responses observed (IFNg) against epitope ([1]; Table 4)	T cell responses observed (IFNg) against epitope [1, 4]
21.1			CC[C@H](C)[C@H](NC(=O)[C@H](Cc1ccc(O)cc1)NC(=O)[C@@H](NC(=O)[C@H](Cc1ccc(O)cc1)NC(=O)[C@H](CC(C)C)NC(=O)[C@@H](N)Cc1ccccc1)[C@@H](C)O)C(=O)N[C@@H](C)C(=O)N[C@@H](CCC(=O)O)C(=O)N[C@H](C(=O)O)C(C)C (H-FLYTYIAEV-OH; N-terminus and C-terminus assumed)	2/2 co-cultures	
8.11	10.9		CC[C@H](C)[C@H](NC(=O)[C@H](Cc1ccc(O)cc1)NC(=O)[C@@H](NC(=O)[C@H](Cc1ccc(O)cc1)NC(=O)[C@H](CC(C)C)NC(=O)[C@@H](N)Cc1ccccc1)[C@@H](C)O)C(=O)N[C@@H](C)C(=O)N[C@@H](CCCCN)C(=O)N[C@H](C(=O)O)C(C)C (H-FLYTYIAKV-OH; N-terminus and C-terminus assumed)	1/4 co-cultures	1/4 co-cultures
4.82	6.56	6.6	CC[C@H](C)[C@H](NC(=O)[C@H](Cc1ccc(O)cc1)NC(=O)[C@H](CC(N)=O)NC(=O)[C@H](CC(C)C)NC(=O)[C@@H](N)CCSC)C(=O)N[C@@H](CCC(=O)O)C(=O)N[C@@H](CCC(N)=O)C(=O)N[C@@H](CCC(=O)O)C(=O)N[C@H](C(=O)O)C(C)C (H-MLNYIEQEV-OH; N-terminus and C-terminus assumed)	1/3 co-cultures	1/3 co-cultures
10.5	11.4		CSCC[C@H](NC(=O)[C@H](CCC(N)=O)NC(=O)[C@H](C)N)C(=O)N[C@@H](Cc1c[nH]c2ccccc12)C(=O)N[C@@H](CCCCN)C(=O)N[C@H](C(=O)N[C@H](C(=O)N[C@@H](CC(N)=O)C(=O)N[C@@H](CC(C)C)C(=O)O)C(C)C)C(C)C (H-AQMWKVVNL-OH; N-terminus and C-terminus assumed)	2/2 co-cultures	
